Test results reported in article PMC3125149, “SCYX-7158, an Orally-Active Benzoxaborole for the Treatment of Stage 2 Human African Trypanosomiasis” (PLoS Neglected Tropical Diseases, 2011).
Like-named read-outs stand apart in the source and are kept apart here. Values belong to the molecule of their own block, whether it stands above or below them.

Assays:
T. b. brucei = experiment: Effect of serum on trypanocidal activity; assay type: cell-based; conditions: 25% mouse serum or 50% bovine serum
Procedure: (§1) Compounds to be tested were serially diluted in DMSO and added to 96-well plates to give final concentrations ranging from 5 to 0.01 µg/mL. T. b. brucei parasites in the log phase of growth were diluted in HMI-9 media and added to each well for a final concentration of 1×10^4 parasites per well. For the sensitivity assays using T. b. rhodesiense and T. b. gambiense, pararasites were cultured in MEM supplemented with Baltz components (8), diluted in the aforementioned culture media, and added to each well at a density of 1×10^3 cells/well. The final concentration of DMSO was 0.5% and the total volume was 100 µL/well. After a 72 h incubation, resazurin (Sigma-Aldrich, St. Louis, MO) was added to each well [20 µL of 25 mg/100 mL stock in phosphate buffered saline (PBS)] and incubated for an additional 4–6 h.[22] To assess cell viability, fluorescence was quantified using an EnVision Multilabel Plate Reader (Perkin Elmer, Waltham, MA) at an excitation wavelength of 530 nm and emission of 590 nm. Triplicate data points were averaged to generate sigmoidal dose-response curves and determine IC50 values using XLfit curve fitting software from IDBS (Guilford, UK). The IC50 is defined as the amount of compound required to decrease parasite or cell viability by 50% compared to those grown in the absence of the test compound. […]

[1] = Pharmacokinetics in uninfected rats; assay type: in vivo, rat
Procedure: (§2) The blood distribution, CNS disposition and pharmacokinetics of SCYX-7158 were evaluated in infected or non-infected rodents following intravenous or oral administration of compounds. Pharmacokinetics and bioavailability of SCYX-7158 were also evaluated in non-infected beagle dogs and cynomolgus monkeys. In-life phases of non-infected rodent studies were performed at Vivisource (Waltham, MA); studies in non-naïve cynomolgus monkeys were performed by SNBL USA (Everett, WA). Male CD-1 mice (∼25 g), male Sprague-Dawley rats (∼225 g), or male cynomolgus monkeys (∼3–5 kg) were administered test article by either bolus intravenous injection (IV) or oral gavage. Animals in the IV groups received a single 2 mg/kg IV dose. Animals received oral doses of test articles as either single or twice daily doses ranging from 8 mg/kg to 50 mg/kg. All doses were administered as clear colorless solutions in either 50% (v/v) PEG 400: 20% (v/v) ethanol: 30% (v/v) carboxymethylcellulose (0.5% w/v in sterile water for injection) or 2% (v/v) ethanol: 5% (w/v) dextrose in sterile water for injection. […] For pharmacokinetic analysis, blood samples were collected from mice via cardiac puncture under terminal anaesthesia. Serial blood samples were collected from rats via a vascular access port located in the lateral saphenous vein. Mice and rats were euthanized in a CO2 chamber before collection of terminal blood samples or brain tissue. Blood samples were collected into polypropylene tubes containing K2EDTA anticoagulant and stored on ice until centrifuged for the preparation of plasma. Plasma was stored at −70°C. Whole brains were collected following decapitation, blotted dry, placed into polypropylene containers and then immediately frozen at approximately −70°C. CSF was collected from rats via cisterna magna puncture, placed in sterile polypropylene tubes, and stored at approximately −70°C. […] Treated samples were gently mixed at room temperature for 10 min, and then centrifuged at approximately 3000×g for 15 min at 15°C. The supernatants were transferred to 96-well plates or HPLC vials for analysis by LC-MS/MS. Pharmacokinetic parameters were calculated from composite mean plasma or tissue data using non-compartmental (oral and intravenous routes) and bi-exponential (intravenous route) analyses in Microsoft Excel.

[2] = Pharmacokinetics in cynomolgus monkeys; assay type: in vivo, cynomolgus monkey
Procedure: as §2

[3] = Pharmacokinetics in uninfected mice; assay type: in vivo, mouse
Procedure: as §2

[4] = mouse, in vivo, po; cited from earlier work
T. b. brucei TREU 667 = conditions: cited from earlier work
GVR35 stage 2 HAT model = conditions: ref R. Brun, personal communication, cited from earlier work
[5] = Pharmacokinetics in uninfected mice; assay type: in vivo, mouse; conditions: male, CD-1, mouse; oral dose of 56 mg/kg SCYX-7158, plasma
CYP2D6 = molecular target: T1, CYP2D6 (Homo sapiens, UniProt P10635); experiment: P450-Glo cytochrome P450 inhibition; assay type: biochemical; conditions: human recombinant CYP2D6
T1 construct: purchased Promega Inc., Madison, WI
Procedure: (§3) The potential for compound to exert drug-drug interactions that are mediated through inhibition of cytochrome P450 activities was assessed using P450-Glo assay kits (Promega Inc., Madison, WI). Assays for human cytochrome P450 isoforms 3A4, 1A2, 2C9, 2C19, and 2D6 were performed in triplicate according to the manufacturer's instructions over the concentration range 1–100 µM (n = 6 levels). Briefly, SCYX-7158 was added to membrane preparations containing human recombinant CYP450 enzymes together with luminogenic substrates specific to each isoform. Specific CYP450 inhibitors were included as positive controls (ketoconazole, CYP3A4; alpha-napthoflavone, 1A2; sulfaphenazole, CYP2C9; troglitazone, 2C19, and quinidine, CYP2D6). Reactions were initiated by addition of NADPH-regenerating solution and were allowed to incubate for an additional 15–30 min (isoform dependent). Luciferin detection reagent, containing the luciferin-labeled probe substrate, was then added. Luminescence was recorded on an EnVision Multilabel Plate Reader. Calculation of IC50 concentrations for each enzyme was determined using GraphPad Prism (V5.01).

CYP2C19 = molecular target: T2, CYP2C19 (Homo sapiens, UniProt P33261); experiment: P450-Glo cytochrome P450 inhibition; assay type: biochemical; conditions: human recombinant CYP2C19
T2 construct: purchased Promega Inc., Madison, WI
Procedure: as §3

CYP3A4 = molecular target: T3, CYP3A4 (Homo sapiens, UniProt P08684); experiment: P450-Glo cytochrome P450 inhibition; assay type: biochemical; conditions: human recombinant CYP3A4
T3 construct: purchased Promega Inc., Madison, WI
Procedure: as §3

CYP2C9 = molecular target: T4, CYP2C9 (Homo sapiens, UniProt P11712); experiment: P450-Glo cytochrome P450 inhibition; assay type: biochemical; conditions: human recombinant CYP2C9
T4 construct: purchased Promega Inc., Madison, WI
Procedure: as §3

CYP1A2 = molecular target: T5, CYP1A2 (Homo sapiens, UniProt P05177); experiment: P450-Glo cytochrome P450 inhibition; assay type: biochemical; conditions: human recombinant CYP1A2
T5 construct: purchased Promega Inc., Madison, WI
Procedure: as §3

T. b. brucei 427 = experiment: In vitro compound sensitivity assay (resazurin viability); assay type: cell-based; conditions: T. b. brucei S427; at 10 µM
From the text: The bloodstream-form T. b. brucei 427 strain was obtained from Dr. K. Stuart (Seattle Biomedical Research Institute, Seattle, WA) and was used for routine assessment of compound sensitivity in vitro. Additional strains used in vitro include T. b. rhodesiense STIB900, isolated in 1992 from a patient in Tanzania, and T. b. gambiense 108R, isolated from a patient in Democratic Republic of Congo in 2005. T. b. brucei EATRO 110 was a generous gift from the late William Trager of the Rockefeller University. T. b. brucei TREU 667 strains were kindly provided by F. W. Jennings at the University of Glasgow. Both T. b. brucei EATRO 110 and TREU 667 were cultured according to previously described conditions and used for in vivo studies.[18], [19]
T. b. brucei was cultured in complete HMI-9 medium,[20] which contains 10% fetal bovine serum (FBS) (Invitrogen, Carlsbad, CA), 10% Serum Plus medium (SAFC Biosciences, Lenexa, KS), and 100 units/mL penicillin and 0.1 mg/mL streptomycin. The trypanosomes were propagated in T-25 vented cap flasks (Corning Inc., Lowell, MA) at 37°C and 5% CO2 with humidity. To ensure log growth phase, trypanosomes were sub-cultured at appropriate dilutions (typically 1∶100) every 2–3 days in fresh HMI-9 medium. T. b. rhodesiense parasites were grown in MEM medium with Earle's salts supplemented with 15% horse serum. For T. b. gambiense, the MEM medium was supplemented with 5% heat-inactivated fetal calf serum (FCS) and 15% human serum.[21] L929 mouse fibroblast cells (ATCC CCL1, American Type Culture Collection, Rockville, MD) were used to determine parasite versus mammalian cell selectivity. Cells were cultured in Dulbecco's Modified Eagle Medium (DMEM), supplemented with 10% FBS, L-glutamine and 100 units/mL penicillin and 0.1 mg/mL streptomycin. MDCKII-hMDR1 cells were generously provided by P. Borst at the Netherlands Kancer Institute. Cells were cultured in DMEM with Glutamax, 10% (v/v) FBS, and 100 units/mL penicillin and 0.1 mg/mL streptomycin. Cell monolayers were fed with cell culture media 24 h after seeding and used for permeability studies 3 days later.
as §1

T2 sequence (P33261 whole entry): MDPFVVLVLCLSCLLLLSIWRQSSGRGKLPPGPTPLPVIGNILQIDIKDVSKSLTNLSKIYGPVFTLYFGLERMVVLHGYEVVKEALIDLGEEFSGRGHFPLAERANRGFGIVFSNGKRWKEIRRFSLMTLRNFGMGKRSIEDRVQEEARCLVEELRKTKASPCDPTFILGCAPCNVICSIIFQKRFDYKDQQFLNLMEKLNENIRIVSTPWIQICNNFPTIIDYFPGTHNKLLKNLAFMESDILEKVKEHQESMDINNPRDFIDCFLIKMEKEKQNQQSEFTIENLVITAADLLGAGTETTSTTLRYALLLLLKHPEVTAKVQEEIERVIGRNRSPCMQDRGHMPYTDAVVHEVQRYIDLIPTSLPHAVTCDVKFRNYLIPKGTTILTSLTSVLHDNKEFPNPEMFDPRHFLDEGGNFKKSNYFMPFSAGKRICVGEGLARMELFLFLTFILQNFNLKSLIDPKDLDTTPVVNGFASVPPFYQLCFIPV
T4 sequence (P11712 whole entry): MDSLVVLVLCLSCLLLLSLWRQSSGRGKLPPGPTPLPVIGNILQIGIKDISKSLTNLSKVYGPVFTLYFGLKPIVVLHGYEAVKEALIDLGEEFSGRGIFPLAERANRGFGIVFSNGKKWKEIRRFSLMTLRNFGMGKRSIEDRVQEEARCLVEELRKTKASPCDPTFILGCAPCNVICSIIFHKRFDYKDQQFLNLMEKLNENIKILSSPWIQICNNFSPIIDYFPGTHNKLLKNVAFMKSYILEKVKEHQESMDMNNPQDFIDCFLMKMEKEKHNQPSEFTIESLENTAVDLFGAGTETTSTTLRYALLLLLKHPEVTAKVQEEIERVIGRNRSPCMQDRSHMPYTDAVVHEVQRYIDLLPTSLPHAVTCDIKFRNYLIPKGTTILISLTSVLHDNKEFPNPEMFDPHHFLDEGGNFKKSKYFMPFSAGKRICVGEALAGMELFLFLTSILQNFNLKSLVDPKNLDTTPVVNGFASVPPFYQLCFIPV
T5 sequence (P05177 whole entry): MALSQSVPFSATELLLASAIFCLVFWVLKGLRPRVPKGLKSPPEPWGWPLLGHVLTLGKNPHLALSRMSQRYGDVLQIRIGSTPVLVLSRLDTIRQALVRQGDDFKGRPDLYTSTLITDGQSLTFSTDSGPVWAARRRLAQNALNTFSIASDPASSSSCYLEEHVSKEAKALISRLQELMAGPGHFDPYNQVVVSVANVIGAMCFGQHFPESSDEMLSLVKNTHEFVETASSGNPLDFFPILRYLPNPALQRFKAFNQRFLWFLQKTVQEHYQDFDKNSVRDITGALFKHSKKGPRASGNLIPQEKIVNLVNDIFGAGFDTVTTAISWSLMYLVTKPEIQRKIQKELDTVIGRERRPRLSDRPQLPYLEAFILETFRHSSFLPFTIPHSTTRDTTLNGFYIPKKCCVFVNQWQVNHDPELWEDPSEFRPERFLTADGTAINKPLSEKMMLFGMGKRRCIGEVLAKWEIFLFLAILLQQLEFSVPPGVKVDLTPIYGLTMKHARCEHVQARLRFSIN
T3 sequence (P08684 whole entry): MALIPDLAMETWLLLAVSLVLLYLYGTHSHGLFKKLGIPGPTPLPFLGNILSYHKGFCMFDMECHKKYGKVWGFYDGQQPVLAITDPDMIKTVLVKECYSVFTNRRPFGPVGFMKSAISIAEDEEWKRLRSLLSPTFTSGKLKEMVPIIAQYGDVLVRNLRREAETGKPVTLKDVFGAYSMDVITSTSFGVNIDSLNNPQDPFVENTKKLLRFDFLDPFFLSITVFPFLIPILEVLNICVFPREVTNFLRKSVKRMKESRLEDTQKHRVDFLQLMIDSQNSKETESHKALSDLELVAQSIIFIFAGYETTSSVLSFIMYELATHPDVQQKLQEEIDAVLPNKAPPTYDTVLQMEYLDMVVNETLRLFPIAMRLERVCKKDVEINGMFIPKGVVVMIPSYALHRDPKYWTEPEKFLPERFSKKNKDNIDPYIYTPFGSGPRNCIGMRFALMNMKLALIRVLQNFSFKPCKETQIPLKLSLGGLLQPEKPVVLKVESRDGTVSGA
T1 sequence (P10635 whole entry): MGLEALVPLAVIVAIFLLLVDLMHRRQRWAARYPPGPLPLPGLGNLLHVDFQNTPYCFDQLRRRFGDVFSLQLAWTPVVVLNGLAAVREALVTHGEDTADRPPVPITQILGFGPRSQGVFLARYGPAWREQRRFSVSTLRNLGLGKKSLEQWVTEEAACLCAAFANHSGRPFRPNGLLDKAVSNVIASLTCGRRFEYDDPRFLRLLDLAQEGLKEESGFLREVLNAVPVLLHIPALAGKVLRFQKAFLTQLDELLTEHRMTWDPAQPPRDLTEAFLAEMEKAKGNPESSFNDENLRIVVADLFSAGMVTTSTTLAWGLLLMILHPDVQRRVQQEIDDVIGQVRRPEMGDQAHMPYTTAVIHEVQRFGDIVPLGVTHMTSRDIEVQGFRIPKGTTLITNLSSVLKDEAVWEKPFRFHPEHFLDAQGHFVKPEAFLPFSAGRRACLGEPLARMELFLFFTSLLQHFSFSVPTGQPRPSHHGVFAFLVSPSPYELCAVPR

Compound: Cc1ccc(C(=O)Nc2ccc(S(=O)(=O)O)c3cc(S(=O)(=O)O)cc(S(=O)(=O)O)c23)cc1NC(=O)c1cccc(NC(=O)Nc2cccc(C(=O)Nc3cc(C(=O)Nc4ccc(S(=O)(=O)O)c5cc(S(=O)(=O)O)cc(S(=O)(=O)O)c45)ccc3C)c2)c1 [suramin, reference compound]
attenuation of in vitro IC50 (T. b. brucei): greater than 25 fold

Compound: OB(O)O [boric acid]
estimated maximum concentration of boric acid ([1]; not measured, rats, 10 mg/kg oral SCYX-7158): 0.09 µg/mL
estimated maximum concentration of boric acid (borate) ([2]; not measured, equimolar to SCYX-3109, 10 mg/kg NG SCYX-7158): ≤ 0.02 µg/mL
estimated maximum concentration of boric acid ([3]; not measured, mice, 56 mg/kg oral SCYX-7158): 0.05 µg/mL

Compound: O=C(Nc1ccc2c(c1)B(O)OC2)c1ccc(F)cc1C(F)(F)F [SCYX-6759, 4-fluoro-N-(1-hydroxy-1,3-dihydrobenzo[c][1], [2]oxaborol-6-yl)-2-trifluoromethylbenzamide]
time post-dose at which brain concentrations fell below the MIC [4]: approximately 12 h
efficacy in stage 2 mouse model (T. b. brucei TREU 667; 50 mg/kg twice-daily intraperitoneal (100 mg/kg/day) for 14 days): fully efficacious
efficacy in stage 2 mouse model (T. b. brucei TREU 667; 50 mg/kg twice-daily oral for 7 days): only partial efficacy
efficacy in stage 2 mouse model (T. b. brucei TREU 667; lower doses or once-daily paradigm): not active

Compound: N=C(N)c1ccc(/N=N/Nc2ccc(C(=N)N)cc2)cc1 [berenil, diminazene, reference compound]
outcome in stage 2 model (T. b. brucei TREU 667; single 10 mg/kg i.p. on day 4 after infection (positive control)): cured
outcome in stage 2 model (T. b. brucei TREU 667; single 10 mg/kg i.p. on day 21 after infection (negative control)): do not sustain cures
time of re-infection of the hemolymphatic system (recrudescence) (T. b. brucei TREU 667; treated 21 days after infection): 35–42 days after infection

Compound: Nc1nc(N)nc(Nc2ccc([As]3SCC(CO)S3)cc2)n1 (centres unmarked) [melarsoprol]
toxicity to mice (GVR35 stage 2 HAT model; 20 mg/kg QD x 5 days): toxic
dose needed to effect cure (GVR35 stage 2 HAT model; QD × 5 days): 10 to 15 mg/kg

Cmax ([1]; male, Sprague-Dawley, rat, oral dose of 10 mg/kg SCYX-7158, plasma, read-out: Cmax): 500 ng/mL
metabolite plasma concentration as % of the SCYX-7158 concentration ([1]; oral dose of 10 mg/kg SCYX-7158, each time point): 3-5%
Cmax [5]: 270 ng/mL
IC50 (CYP2D6): > 100 µM
IC50 (CYP2C19): > 100 µM
IC50 (CYP3A4): 7.5 µM
IC50 (CYP2C9): > 100 µM
IC50 (CYP1A2): > 100 µM
metabolite plasma concentration as % of the SCYX-7158 concentration ([2]; 10 mg/kg NG group, all time points): approximately 1%
AUC(0-inf) ([2]; male, cynomolgus monkey, oral, 10 mg/kg SCYX-7158 NG, plasma): 6400 ng·h/mL
Cmax ([2]; male, cynomolgus monkey, oral, 10 mg/kg SCYX-7158 nasogastric (NG), plasma): 140 ng/mL
metabolite plasma concentration as % of the SCYX-7158 concentration ([3]; oral dose of 56 mg/kg SCYX-7158, all time points): approximately 1%
Compound: CC(C)(O)c1ccc(NC(=O)c2ccc(F)cc2C(F)(F)F)cc1O [SCYX-3109]
inhibition of parasite growth (T. b. brucei 427): inactive
